Laboratory results: patent publication US7049322B2 (priority 2002, dated 2006)

What was measured:
[1] = Moisture sorption/desorption (VTI SGA-100 moisture balance); format: physicochemical; conditions: for hygroscopicity: 5 to 95% RH
Excerpt: The samples were not dried prior to analysis.

[2] = Dehydration/desolvation under vacuum, XRPD; format: physicochemical
Excerpt: The characterization of this weight loss as THF solvent is supported by the ^1H NMR data.

[3] = clinical trials, cited from earlier work
[4] = XRPD after storage in a closed vial at ambient conditions; format: physicochemical; conditions: 31 days
Procedure: X-ray powder diffraction analyses were carried out on a Shimadzu XRD-6000 X-ray powder diffractometer using Cu Kα radiation having a wavelength of 1.5406 Å. The instrument is equipped with a fine-focus X-ray tube. The tube power was set by setting potential difference at 40 kV, and current 40 mA. The divergence and scattering slits were set at 1° and the receiving slit was set at 0.15 mm. Diffracted radiation was detected by a NaI scintillation detector. A theta-two theta continuous scan at 3°/min (0.4 sec/0.02° step) from 2.5 to 40 °2θ was performed. A silicon standard was analyzed each day to check the instrument alignment. Each sample was analyzed in a quartz sample holder. A variable temperature (VT-XRPD) experiment was performed on one form. The sample was prepared for analysis by pressing it into a variable temperature holder. A powder pattern was collected initially at 35° C. and again, after heating, at 200° C.

## CC[C@@]1(O)C(=O)OCc2c1cc1n(c2=O)Cc2cc3c([N+](=O)[O-])cccc3nc2-1 [Form A, 9-nitrocamptothecin]
[1]; 5% RH
  water gained upon equilibration to 5% RH: 0.01%
[1]
  hygroscopicity: not hygroscopic

## CC[C@@]1(O)C(=O)OCc2c1cc1n(c2=O)Cc2cc3c([N+](=O)[O-])cccc3nc2-1 [Form C, 9-nitrocamptothecin]
[2]
  form after attempted desolvation: becomes amorphous

## CC[C@@](O)(C(=O)[O-])c1cc2n(c(=O)c1CO)Cc1cc3ccccc3nc1-2.[Na+] [Sodium camptothecin]
[3]; administered intravenously
  side effects: unpredictable side effects such as myelosuppression and hemorrhagic cystitis
[3]; early 1970's
  antineoplastic activity: found to have antineoplastic activity

## CC[C@@]1(O)C(=O)OCc2c1cc1n(c2=O)Cc2cc3c([N+](=O)[O-])cccc3nc2-1 [Form B, 9-nitrocamptothecin]
[1]; 5% RH
  water lost upon equilibration at 5% RH: 0.98%
[1]
  hygroscopicity: relatively hygroscopic
[4]
  stability of the crystalline polymorph (XRPD pattern unchanged): relatively stable
